Results taken from ChEMBL document CHEMBL1201862, “PubChem BioAssay data set” (2004).
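Five concentrations, 48 hours, 96-well plates. Here, GI50 denotes the concentration required for 50% inhibition of growth.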 Active and inactive are the calls of the source. Cut-off read from the data, not from the text of the source: active = GI50 up to about 1.1 µM and inactive = higher.

Assays:
Test in all cases: DTP human tumour cell line panel, 48 h
SF-295 = system: SF-295
SW-620 = system: SW-620
SR = system: SR
MOLT-4 = system: MOLT-4
PC-3 = system: PC-3
BT-549 = system: BT-549
SNB-75 = system: SNB-75
HT-29 = system: HT-29
SNB-19 = system: SNB-19
NCI-H23 = system: NCI-H23
MDA-MB-231 = system: MDA-MB-231
U-251 = system: U-251
OVCAR-4 = system: OVCAR-4
HOP-92 = system: HOP-92
OVCAR-3 = system: OVCAR-3
HCT-15 = system: HCT-15
NCI-H522 = system: NCI-H522
SF-268 = system: SF-268
SK-OV-3 = system: SK-OV-3
TK-10 = system: TK-10

| SMILES | GI50 (SF-295) | GI50 (SW-620) | GI50 (SR) | GI50 (MOLT-4) | GI50 (PC-3) | GI50 (BT-549) | GI50 (SNB-75) | GI50 (HT-29) | GI50 (SNB-19) | GI50 (NCI-H23) | GI50 (MDA-MB-231) | GI50 (U-251) | GI50 (OVCAR-4) | GI50 (HOP-92) | GI50 (OVCAR-3) | GI50 (HCT-15) | GI50 (NCI-H522) | GI50 (SF-268) | GI50 (SK-OV-3) | GI50 (TK-10) |
| --- | --- | --- | --- | --- | --- | --- | --- | --- | --- | --- | --- | --- | --- | --- | --- | --- | --- | --- | --- | --- |
| CN1N=C(N)c2cn(C3OC(COP(=O)(O)O)C(O)C3O)c3ncnc1c23 (stereo not given) | 144 µM (inactive) | 91.8 µM (inactive) | 10.8 µM (inactive) | 0.622 µM (active) | 0.836 µM (active) | 7.48 µM (inactive) | 5.33 µM (inactive) | 17.3 µM (inactive) | 53.3 µM (inactive) | 25.9 µM (inactive) | 10.9 µM (inactive) | 379 µM (inactive) | 5.86 µM (inactive) | 0.5 µM (active) | 35.2 µM (inactive) | 19.7 µM | 2050 µM (inactive) | 55.6 µM (inactive) | 0.822 µM (active) | 2.88 µM (inactive) |
| CCCC(CCC)C(=O)O [VALPROIC ACID] | 7760 µM (inactive) | 8530 µM (inactive) | 8510 µM (inactive) | 11200 µM (inactive) | 16900 µM (inactive) | 12200 µM (inactive) | 6150 µM (inactive) | 3010 µM (inactive) | > 100 µM (inactive) | > 100 µM (inactive) | 14700 µM (inactive) | 8020 µM (inactive) | 3720 µM (inactive) | 9380 µM (inactive) | 12900 µM (inactive) | 8090 µM | 3240 µM (inactive) | 2140 µM (inactive) | > 100 µM (inactive) | 8240 µM (inactive) |
| NC1CC(=O)c2c(Cl)sc(Cl)c21 (stereo not given) | 14 µM (inactive) | 1.68 µM (inactive) | 0.493 µM (active) | 2.18 µM (inactive) | 6.21 µM (inactive) | 3.76 µM (inactive) | 14.1 µM (inactive) | 1.72 µM (inactive) | 13.2 µM (inactive) | 10.5 µM (inactive) | 2.19 µM (inactive) | 3.77 µM (inactive) | 6.44 µM (inactive) | 1.47 µM (inactive) | 6.47 µM (inactive) | 1.63 µM | 1.48 µM (inactive) | 15.8 µM (inactive) | 14.4 µM (inactive) | 2.43 µM (inactive) |
| CC1OC(=O)C2CC3CCCCC3C(/C=C/C3CCCC(C)N3C)C12 (stereo not given) | 63.1 µM (inactive) | > 100 µM (inactive) | > 100 µM (inactive) | > 100 µM (inactive) | > 100 µM (inactive) | > 100 µM (inactive) | > 95.5 µM (inactive) | > 100 µM (inactive) | > 100 µM (inactive) | > 100 µM (inactive) | > 100 µM (inactive) | > 100 µM (inactive) | > 100 µM (inactive) | > 100 µM (inactive) | > 100 µM (inactive) | > 100 µM | > 100 µM (inactive) | > 100 µM (inactive) | > 100 µM (inactive) | > 100 µM (inactive) |
| COC(=O)[C@]1(C)CCC[C@@]2(C)C1CC[C@]13C=C(C(C)C)[C@H](CC21)CC3(Cl)C#N (stereo not given in full) | 41.4 µM (inactive) | 37.6 µM (inactive) | 32.1 µM (inactive) | 20 µM (inactive) | 18.9 µM (inactive) | 35.6 µM (inactive) | 4.24 µM (inactive) | 27.4 µM (inactive) | > 100 µM (inactive) | 59.8 µM (inactive) | 42.2 µM (inactive) | 19.8 µM (inactive) | 54.6 µM (inactive) | > 100 µM (inactive) | 35 µM (inactive) | 44.7 µM | 26.5 µM (inactive) | 46.3 µM (inactive) | > 100 µM (inactive) | > 100 µM (inactive) |
| O=Cc1ccc(-c2ccc(-c3ccc(C=O)s3)o2)s1 | > 77.3 µM (inactive) | > 80.7 µM (inactive) | > 40.8 µM (inactive) | > 75.7 µM (inactive) | > 100 µM (inactive) | 77.3 µM (inactive) | 29.7 µM (inactive) | > 96.2 µM (inactive) | > 88.1 µM (inactive) | > 100 µM (inactive) | > 100 µM (inactive) | 1.34 µM (inactive) | 2.79 µM (inactive) | > 89.3 µM (inactive) | 1.44 µM (inactive) | 61.5 µM | 15 µM (inactive) | > 100 µM (inactive) | > 97.3 µM (inactive) | 1.46 µM (inactive) |
| CCC1CN2CCc3cc(OC)c(OC)cc3C2CC1CC1c2cc(OC)c(OC)cc2CCN1C(=O)C(Cc1c[nH]c2ccccc12)NC(=O)OC(C)(C)C (stereo not given) | 3.97 µM (inactive) | 2.82 µM (inactive) | 1.73 µM (inactive) | 2.47 µM (inactive) | 3.12 µM (inactive) | 3.36 µM (inactive) | 2.59 µM (inactive) | 2.03 µM (inactive) | 7.59 µM (inactive) | 7.67 µM (inactive) | 2.16 µM (inactive) | 2.57 µM (inactive) | 1.7 µM (inactive) | 2.62 µM (inactive) | 3.3 µM (inactive) | 2.58 µM | 2.28 µM (inactive) | 5.4 µM (inactive) | 4.8 µM (inactive) | 7.83 µM (inactive) |
| CC[C@@]1(O)C(=O)OCc2c1cc1n(c2=O)Cc2c-1nc1ccccc1c2/C=N\NC(=O)C(N)CC(C)C (stereo not given in full) | < 0.01 µM (active) | 0.0887 µM (active) | < 0.01 µM (active) | < 0.01 µM (active) | < 0.0188 µM (active) | 0.0382 µM (active) | < 0.01 µM (active) | 0.228 µM (active) | < 0.01 µM (active) | < 0.01 µM (active) | 1.25 µM (inactive) | < 0.01 µM (active) | 0.44 µM (active) | 0.0815 µM (active) | 0.297 µM (active) | 0.24 µM | < 0.0175 µM (active) | < 0.01 µM (active) | < 0.0212 µM (active) | 3.12 µM (inactive) |
| Cn1cnc([N+](=O)[O-])c1Sc1nc(N)nc2c1ncn2[C@H]1C[C@H](O)[C@@H](CO)O1 | 3.11 µM (inactive) | 6.5 µM (inactive) | 1.07 µM (active) | 2.43 µM (inactive) | 6.84 µM (inactive) | 5.62 µM (inactive) | 5.68 µM (inactive) | 3.54 µM (inactive) | 62.1 µM (inactive) | 3.91 µM (inactive) | 3.36 µM (inactive) | 12 µM (inactive) | 2.99 µM (inactive) | 17.3 µM (inactive) | 3.44 µM (inactive) | 4.17 µM | 2.57 µM (inactive) | 1.77 µM (inactive) | 0.463 µM (active) | 3.98 µM (inactive) |
| N=C(N)NCC1CCCCCCN1 (stereo not given) | > 100 µM (inactive) | > 100 µM (inactive) | > 100 µM (inactive) | > 100 µM (inactive) | > 100 µM (inactive) | > 100 µM (inactive) | > 100 µM (inactive) | > 100 µM (inactive) | > 100 µM (inactive) | > 100 µM (inactive) | > 100 µM (inactive) | > 100 µM (inactive) | > 100 µM (inactive) | > 100 µM (inactive) | > 100 µM (inactive) | > 100 µM | > 100 µM (inactive) | > 100 µM (inactive) | > 100 µM (inactive) | > 100 µM (inactive) |
| CC(=O)NNc1nc(C)c(C(/C=C/c2ccc([N+](=O)[O-])cc2)=N/NC(N)=O)s1 | > 100 µM (inactive) | > 100 µM (inactive) | > 100 µM (inactive) | > 100 µM (inactive) | > 100 µM (inactive) | > 100 µM (inactive) | > 100 µM (inactive) | > 100 µM (inactive) | > 100 µM (inactive) | > 100 µM (inactive) | > 100 µM (inactive) | > 100 µM (inactive) | > 100 µM (inactive) | > 100 µM (inactive) | > 100 µM (inactive) | > 100 µM | > 100 µM (inactive) | > 100 µM (inactive) | > 100 µM (inactive) | > 100 µM (inactive) |
| COc1ccc(N2CN3OC(=O)N(c4ccc(OC)cc4)[C@@]3(c3ccccc3)C2)cc1 | 16.5 µM (inactive) | 6.04 µM (inactive) | 2.79 µM (inactive) | 7.23 µM (inactive) | 10.8 µM (inactive) | 21.5 µM (inactive) | 14.4 µM (inactive) | 6.49 µM (inactive) | 44 µM (inactive) | 23.6 µM (inactive) | 10 µM (inactive) | 11.9 µM (inactive) | 20.3 µM (inactive) | 15.9 µM (inactive) | 13.1 µM (inactive) | 5.18 µM | 10.5 µM (inactive) | 73.6 µM (inactive) | 20.8 µM (inactive) | 30.8 µM (inactive) |
| CC(=O)Nc1c(S(=O)(=O)c2ccccc2)c(C)c(C)n1CCN(C)C | > 100 µM (inactive) | > 100 µM (inactive) | > 100 µM (inactive) | > 100 µM (inactive) | > 100 µM (inactive) | > 100 µM (inactive) | > 100 µM (inactive) | > 100 µM (inactive) | > 100 µM (inactive) | > 100 µM (inactive) | > 100 µM (inactive) | > 100 µM (inactive) | > 100 µM (inactive) | > 100 µM (inactive) | > 100 µM (inactive) | > 100 µM | > 100 µM (inactive) | > 100 µM (inactive) | > 100 µM (inactive) | > 100 µM (inactive) |
